Measurements: patent publication US20090023645A1, “AIB1, a novel steroid receptor co-activator” (The Government of the United States of America as …, priority 1997, published 2009)

Key:
ER = assay: transient transfection ER reporter (luciferase) transcription assay in COS-1 cells; assay type: cell-based; conditions: 100 nM 4-hydroxytamoxifen in place of 17β-estradiol
Description: COS-1 cells were transiently transfected with 250 ng ER expression vector (pHEGO-hyg), 10 ng of luciferase reporter plasmid (pGL3.luc.3ERE or 10 ng pGL3 lacking ERE) and increasing amounts of pcDNA3.1-AIB1 and incubated in the absence (open bars) or presence of 10 nM 17β-stradiol (E2, solid bars) or 100 nM 4-hydroxytamoxifen (hatched bars). Luciferase activity was expressed in relative luminescence units (RLU). The data are the mean of three determinations from one of four replicate experiments. Error bars indicate one standard deviation.
To determine whether expression of AIB1 increases ER ligand-dependent transactivation, transient transfection assays were performed. The effect of increasing levels of AIB1 on transcription of an ER dependent reporter was measured. […] This effect was not observed when the estrogen antagonist, 4-hydroxytamoxifen (4-OHT), was substituted for 17β-estradiol or when the estrogen response element (ERE) was removed from the reporter plasmid (FIG. 3).
To determine the effect of AIB1 on estrogen-dependent transcription, an ER reporter plasmid can be used. […] Reporter activities were determined using the Dual-Luciferase Reporter Assay System (Promega) and the results expressed in relative luminescence units (RLU; luciferase/Renilla luciferase). pRL-CMV and pGL3-promoter were obtained from Promega. pHEGO-hyg was obtained from ATCC. […]

metastatic tumor = assay: tamoxifen treatment of a patient whose metastatic breast tumor showed high AIB1 copy number; assay type: in vivo; conditions: one post-menopausal patient, ER/PR positive metastatic tumor with high AIB1 copy number
recurrent breast cancer = assay: response to tamoxifen therapy in patients with recurrent breast cancer and ER-positive primary tumors; assay type: in vivo
Description: Loss of estrogen receptor in recurrent breast caner is also associated with poor response to endocrine therapy. […] The frequency of hormone receptor status changes between primary and recurrent tumors and whether such a change might explain unresponsiveness to endocrine therapy was examined. Primary breast cancer samples and matched asynchronous recurrences were studied from 50 patients who had not received any adjuvant therapy. ER and progesterone receptor (PR) status was determined immunohistochemically from histologically representative formalin-fixed paraffin-embedded tumor samples. ER status was ascertained by mRNA in situ hybridization. Thirty-five (70%) of 50 primary tumors were positive for ER and 30 (60%) for PR. Hormone receptor status of the recurrent tumor differed from that of the primary tumor in 18 cases (36%). Discordant cases were due to the loss of ER (n=6), loss of PR (n=6), or loss of both receptors (n=6). Receptor-negative primary tumors were always accompanied by receptor-negative recurrences. Among 27 patients with ER-positive primary tumors, loss of ER was a significant predictor (P=0.0085) of poor response to subsequent endocrine therapy. […] Loss of ER expression in recurrent breast cancer predicts poor response to endocrine therapy in primarily ER-positive patients.

| Molecule | AIB1 dose dependent increase in transcription when the ligand is substituted for 17β-estradiol (ER) | patient response to tamoxifen treatment (metastatic tumor) | response rate to tamoxifen therapy (recurrent breast cancer; patients whose recurrent tumors retained ER expression (14 of 19)) | response rate to tamoxifen therapy (recurrent breast cancer; patients with lost ER expression in the recurrent tumor (one of eight)) |
| --- | --- | --- | --- | --- |
| 4-hydroxytamoxifen | not observed |  |  |  |
| CC/C(=C(\c1ccccc1)c1ccc(OCCN(C)C)cc1)c1ccccc1 [tamoxifen] |  | responded favorably | 74% | 12.5% |
